Holding throughout (type): cell-based
Experiment [1] has as its target T1, hCB2 (Homo sapiens, UniProt P34972).
T1 construct: host or cells: CHO-K1
Description: cAMP assay (LANCE TR-FRET) in CHO-K1 cells stably expressing hCB2, agonist/inverse agonist. The conditions noted are these: intracellular cAMP, CHO-K1 hCB2 cells prestimulated with NKH-477; + agonist, − inverse agonist. On the procedure:
(§1) The ability of compounds to act as agonists or inverse agonists at human CB2 and CB1 receptors (hCB2, hCB1, respectively) was determined by measuring changes in intracellular cAMP levels. Chinese Hamster Ovary (CHO-K1) cell lines stably expressing hCB2 (Genebank: X74328) or hCB1 (Genebank: X54937) were purchased from Euroscreen (Gosselies, Belgium).
(§2) Cell lines were grown in suspension in EX-CELL 302 CHO Serum-free medium (Sigma, cat #14324C) supplemented with 1% Fetal Bovine Serum, glutamine and non-essential amino-acids under 0.4 mg/mL G418 selection.
(§3) Receptor mediated responses were determined by measuring changes in intracellular cAMP using LANCE cAMP detection kit (cat #AD0264, PerkinElmer, Wellesley, Mass.) based on time-resolved fluorescence resonance energy transfer (TR-FRET). Changes in cAMP were determined in cells pre-incubated with IBMX (isobutyl methylxanthine) and prestimulated with NKH-477 (a water soluble forskolin derivative, cat #1603, Tocris, Ellisville, Mo.) to increase basal cAMP levels as detailed below.
(§4) On the day of the experiment, cells were spun at low speed for 5 min at room temperature. The supernatant was removed and cells were resuspended in stimulation buffer (Hanks Buffered Salt Solution/5 mM HEPES, containing 0.5 mM IBMX (cat #17018, Sigma) and 0.02% BSA (PerkinElmer, cat #CR84-100)). Cell clumps were removed by filtering through cell strainer 40 μm (BD Falcon, Discovery Labware, Bedford, Mass.) and diluted to 2×10^5 cells/mL. Antibody supplied with the LANCE cAMP immunoassay kit was then added according to the manufacturer's instructions. An aliquot of cells was taken for un-induced controls. To the remaining cells was added NKH-477 (a water soluble forskolin derivative, Tocris cat #1603) to a final concentration of 2-8 μM. Cells were then incubated for 30 min at room temperature prior to adding to Proxiplates containing test compounds (final DMSO concentration was less than 0.5%) with a Multidrop bulk dispenser, followed by a sixty minute incubation at room temperature. The response was stopped by addition of the detection mix supplied with the LANCE kit.
(§5) The reagents were allowed to equilibrate for three hours prior to reading on an Envision multi-mode detector (PerkinElmer). TR-FRET was measured using a 330-380 nm excitation filter, a 665 nm emission filter, dichroic mirror 380 nm and Z=1 mm.
(§6) Cyclic AMP concentrations in each well were back-calculated from a cAMP standard curve run concurrently during each assay. Each plate contained 16 wells of forskolin stimulated cells and 16 wells of forskolin plus CP55,940-treated. CP55,940-treated cells were treated with CP55,940 (Tocris cat. # 0949) at 1 μm and the maximal response was used as the full range (100%) standard. WIN55,212 (Tocris cat. # 1038) was used as an internal standard. Concentrations of cAMP were expressed as a percent of the difference of these two groups of wells. Concentration-response data including ECso (the concentration of compound producing 50% of the maximal response) and intrinsic activity (the percent maximal activation compared to full activation by CP55,940) were determined using a four-parameter non-linear regression algorithm (Xlfit equation 251, IDBS).

In experiment [2] the target is T2, hCB1 (Homo sapiens, UniProt P21554).
T2 construct: host or cells: CHO-K1
Briefly: cAMP assay (LANCE TR-FRET) in CHO-K1 cells stably expressing hCB1, agonist/inverse agonist. The conditions noted are these: intracellular cAMP, CHO-K1 hCB1 cells prestimulated with NKH-477, + agonist, − inverse agonist; for EC50: read-out: hCB1 EC50 class. On the procedure: as §1, §2, §3, §4, §5, §6
A general note: cAMP levels reflect the balance of adenylyl cyclase and phosphodiesterase activity.

The target in experiment [3] is T3, rCB2 (Rattus norvegicus, UniProt Q9QZN9).
T3 sequence (Q9QZN9 1-360): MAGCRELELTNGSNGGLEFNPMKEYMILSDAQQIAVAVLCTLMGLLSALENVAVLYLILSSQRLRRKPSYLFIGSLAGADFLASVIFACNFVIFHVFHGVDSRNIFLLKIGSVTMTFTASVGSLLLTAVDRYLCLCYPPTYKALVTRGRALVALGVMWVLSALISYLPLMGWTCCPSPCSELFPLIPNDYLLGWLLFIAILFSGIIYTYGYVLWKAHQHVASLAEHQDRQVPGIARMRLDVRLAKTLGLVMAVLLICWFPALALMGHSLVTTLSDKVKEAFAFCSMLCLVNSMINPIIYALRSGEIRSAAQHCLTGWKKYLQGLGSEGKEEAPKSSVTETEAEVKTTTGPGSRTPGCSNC
Description: cAMP assay, rCB2 in Table 7, agonist/inverse agonist. The conditions noted are these: intracellular cAMP; + agonist, − inverse agonist. The procedure: as §3, §4, §5, §6

Results on 10 molecules are retold here after patent US20080161340A1, “Tetrahydroquinilinones, tetrahydronaphthyridones and derivatives thereof” (priority 2006, published 2008).

Molecules are shown by their SMILES.

T2 sequence (P21554 whole entry): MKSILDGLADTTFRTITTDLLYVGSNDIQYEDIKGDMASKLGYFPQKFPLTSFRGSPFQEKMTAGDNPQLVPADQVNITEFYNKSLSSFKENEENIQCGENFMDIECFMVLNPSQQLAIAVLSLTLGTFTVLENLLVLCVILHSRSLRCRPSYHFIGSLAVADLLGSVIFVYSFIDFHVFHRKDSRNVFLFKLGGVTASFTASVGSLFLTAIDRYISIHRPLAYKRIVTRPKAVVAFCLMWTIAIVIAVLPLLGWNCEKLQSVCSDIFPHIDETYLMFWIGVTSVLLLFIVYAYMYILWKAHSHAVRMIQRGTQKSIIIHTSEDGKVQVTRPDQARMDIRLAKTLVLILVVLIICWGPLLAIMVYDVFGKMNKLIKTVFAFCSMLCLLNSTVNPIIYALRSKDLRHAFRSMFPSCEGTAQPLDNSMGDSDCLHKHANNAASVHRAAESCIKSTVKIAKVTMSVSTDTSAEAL
T1 sequence (P34972 whole entry): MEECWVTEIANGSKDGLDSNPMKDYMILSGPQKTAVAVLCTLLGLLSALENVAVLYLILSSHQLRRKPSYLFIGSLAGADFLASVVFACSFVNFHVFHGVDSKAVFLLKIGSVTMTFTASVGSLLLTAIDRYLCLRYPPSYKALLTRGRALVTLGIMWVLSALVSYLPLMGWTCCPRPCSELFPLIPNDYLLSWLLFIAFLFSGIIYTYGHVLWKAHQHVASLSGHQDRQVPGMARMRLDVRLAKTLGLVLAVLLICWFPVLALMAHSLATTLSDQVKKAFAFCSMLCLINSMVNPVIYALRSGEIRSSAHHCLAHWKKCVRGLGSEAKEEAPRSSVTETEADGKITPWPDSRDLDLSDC

On to `CC(=O)N1CCc2c(cc(-c3ccc(C(F)(F)F)cc3)c(=O)n2CC2CCC2)C1` [Compound 44, 6-acetyl-1-(cyclobutylmethyl)-3-(4-(trifluoromethyl)phenyl)-5,6,7,8-tetrahydro-1,6-naphthyridin-2(1H)-one], for which the “hCB2 EC50 class” value in experiment [1] is recorded as “+B”. The EC50 (commonly the concentration giving half of the maximal effect) in experiment [2] was greater than 10 µM. The “rCB2 EC50 class” value in experiment [3] was “+B”.
For the molecule `CS(=O)(=O)N1CCc2c(cc(-c3cccc(Cl)c3)c(=O)n2CC2CCC2)C1` [Compound 41, 3-(3-chlorophenyl)-1-(cyclobutylmethyl)-6-(methylsulfonyl)-5,6,7,8-tetrahydro-1,6-naphthyridin-2(1H)-one], the “hCB2 EC50 class” value in experiment [1] was “+A”. For the same molecule, the EC50 in experiment [2] was greater than 10 µM. Moreover, the “rCB2 EC50 class” value in experiment [3] is listed as “+A”.
`O=c1c(-c2cc3c(n(CC4CCC4)c2=O)CCCC3)cc2c(n1CC1CCC1)CCCC2` [Compound 5, 1,1′-bis(cyclobutylmethyl)-5,5′,6,6′,7,7′,8,8′-octahydro-3,3′-biquinoline-2,2′(1H,1′H)-dione]: the “hCB2 EC50 class” value in experiment [1] was “+A”. Further, the “hCB1 EC50 class” value in experiment [2] is “+C”. Also, in experiment [3], the “rCB2 EC50 class” value was “+A”.
`O=c1c(-c2ccc(Cl)cc2)cc2c(n1CC1CCC1)CCCC2` [Compound 19, 3-(4-chlorophenyl)-1-(cyclobutylmethyl)-5,6,7,8-tetrahydroquinolin-2(1H)-one]: in experiment [1], the “hCB2 EC50 class” value is “+B”. In addition, the EC50 in experiment [2] was greater than 10 µM. Also, the “rCB2 EC50 class” value in experiment [3] is reported as “+B”.
On to `O=c1c(-c2cccnc2)cc2c(n1CC1CCC1)CCNC2` [Compound 40, 1-(cyclobutylmethyl)-3-(pyridin-3-yl)-5,6,7,8-tetrahydro-1,6-naphthyridin-2(1H)-one], for which the “hCB2 EC50 class” value in experiment [1] is on record as “+C”. Moreover, the EC50 in experiment [2] is greater than 10 µM. Also, the “rCB2 EC50 class” value in experiment [3] is recorded as “+B”.
The like results for `O=c1c(-c2cccs2)cc2c(n1CC1CCC1)CCCC2` [Compound 9, 1-(cyclobutylmethyl)-3-(thiophen-2-yl)-5,6,7,8-tetrahydroquinolin-2(1H)-one] were, in that order, “+B”, greater than 10 µM and “+C”.
In the case of `O=c1c(Cc2ccncc2)cc2c(n1CC1CCC1)CCCC2` [Compound 32, 1-(cyclobutylmethyl)-3-(pyridin-4-ylmethyl)-5,6,7,8-tetrahydroquinolin-2(1H)-one], the “hCB2 EC50 class” value in experiment [1] was “+B”. Moreover, in experiment [2], the EC50 is greater than 10 µM. Besides, in experiment [3], the “rCB2 EC50 class” value is given as “+B”.
Turning to `O=c1c(-c2cccc(C(F)(F)F)c2)cc2c(n1CC1CCC1)CCCC2` [Compound 6, 1-(cyclobutylmethyl)-3-(3-(trifluoromethyl)phenyl)-5,6,7,8-tetrahydroquinolin-2(1H)-one], the “hCB2 EC50 class” value in experiment [1] is recorded as “+A”. Also, the EC50 in experiment [2] is greater than 10 µM. Further, in experiment [3], the “rCB2 EC50 class” value was “+A”.
On to `CCS(=O)(=O)N1CCc2c(cc(-c3cccc(Cl)c3)c(=O)n2CC2CC2)C1` [Compound 49, 3-(3-chlorophenyl)-1-(cyclopropylmethyl)-6-(ethylsulfonyl)-5,6,7,8-tetrahydro-1,6-naphthyridin-2(1H)-one], for which the “hCB2 EC50 class” value in experiment [1] is on record as “+B”. In addition, the EC50 in experiment [2] was greater than 10 µM. Also, in experiment [3], the “rCB2 EC50 class” value is given as “+B”.
For the molecule `O=c1c(-c2ccccc2C(F)(F)F)cc2c(n1CC1CCC1)CCCC2` [Compound 20, 1-(cyclobutylmethyl)-3-(2-(trifluoromethyl)phenyl)-5,6,7,8-tetrahydroquinolin-2(1H)-one], in experiment [1], the “hCB2 EC50 class” value was “+B”. In addition, in experiment [2], the EC50 was greater than 10 µM. Besides, the “rCB2 EC50 class” value in experiment [3] is recorded as “+B”.
